Each structure is given as a SMILES string. “Also recorded” adds a separate entry of the source. Like-named read-outs stand apart in the source and are kept apart here.

The test system of assay [1] is inflammatory MA (face CFA model). The assay can be described thus: Face Complete Freund's Adjuvant (CFA) model of inflammatory mechanical allodynia. It is filed as in vivo. Conditions: rat, intracisternal 5 μL at 100 μM. The procedure: FIG. 1 illustrates the results obtained by the intracisternal application of compounds 19-24, 66-72 and 74-82. These compounds prevent face MA in a rat model of inflammatory pain (Complete Freund's Adjuvant (CFA), n=4-6 rats for each compound). For this assay, compounds (5 μL at 100 μM) or control vehicle were intra-cisternally administred 30 min before CFA injection.
Face Complete Freund's Adjuvant (CFA) Model.
CFA (Becton Dickinson) was dissolved in saline solution containing Tween 80 and paraffin oil and conserved at 4° C. For the behavioral tests, animals were briefly (<2 min) anesthetized using a mask with 2% isoflurane and received a subcutaneous injection of 25 μL of CFA (2.5 mg/kg) solution into the right vibrissa pad using a 27 Ga needle coupled to a 25 μL Hamilton syringe, as described previously. After injection, animals were awakened from anesthesia and placed in the behavioral experimental room, followed by a 120 min mechanical testing period.
Intracisternal Injection:
For investigating the effects of synthetized compounds upon mechanical allodynia, animals were briefly (<2 min) anesthetized using a mask with 2% isoflurane and received an intracisternal injection of 5 μL of compound (100 μM) or vehicle alone (saline+1% DMSO) using a 10 μL Hamilton syringe. After recovery (<2 min), rats were placed in an observation field (0.6×0.6 m square) under red light for a period test. 6-g von Frey filament was gently applied every 15 or 30 min onto the orofacial region by a first experimenter. The behavioral responses were observed and quantified by a second experimenter (see below).
Behavioral Responses to Normally Innocuous (6-g Von Frey Filament) Mechanical Stimulation.
The behavioral responses procedure was previously developed by Vos et al. 1994. A rat's response to mechanical stimulation consisted of one or more of the following elements: (1) detection, rat turn head toward stimulus; (2) withdrawal reaction, rat pull paw away or turn head away or pull it briskly backward when stimulation is applied (a withdrawal reaction is assumed to include a detection element preceding the head withdrawal and therefore consists of two responses elements); (3) escape/attack, rats avoid further contact with the stimulus, either passively by moving their bodies away from the stimulus, or actively by attacking the tip of the […]; (4) asymmetric grooming, rats display an uninterrupted series of at least three wash strokes directed to the stimulated area.
The in vivo efficacy of some compounds was evaluated on a rat model of inflammatory MA (face CFA model; Alba-Delgado et al J. Neurosci. 2018, 38, 10489-10504) (FIG. 1). After receiving a subcutaneous injection of 25 μL of CFA (2.5 mg/kg) into the right vibrissa pad, rats develop a MA that lasts days. […] In this model of inflammatory MA, MA was suppressed in compound 69 treated rats, in comparison to animals treated with vehicle (FIG. 2A).

The target in another assay is p38α MAPK (Homo sapiens (Human), UniProt Q16539). The assay can be described thus: p38 alpha IC50. Type of assay: biochemical. The procedure:
(§1) Studies were undertaken to identify the possible biological target(s) of compound 69. The activation in neurons of PK such as PKCγ, ERK or p38 MAPK can contribute to pain hypersensitivity. Therefore, it was decided to screen compound 69 toward a panel of 50 PKs that provide a representative sampling of the human kinome (FIG. 3, Table 3) (Biochem. J. 2007, 408, 297-315). In this panel, p38α MAPK was identified as the privileged target, with 19% of kinase residual activity at 10 μM compound concentration.
(§2) The selectivity of compound 69 was evaluated at 1 μM toward another panel containing all four p38 MAPK isoforms, ERK1, ERK2 as well as other protein kinases close to p38α MAPK in the kinome phylogenetic tree (FIG. 4, Table 4). […] Its IC50 toward p38α MAPK was determined, showing a value in the micromolar range (IC50=3.0±0.1 μM).

A further assay has as its target JNK1 (Homo sapiens (Human), UniProt P45983). The assay can be described thus: ICKP protein kinase panel screening. Conditions: 1 μM, duplicate assays, read-out: mean % residual activity. Type of assay: biochemical. As to the method: (§3) FIG. 3 illustrates the human kinome. Compound 69 was evaluated at the International Center For Kinase Profiling (ICKP, Dundee, Scotland) toward a panel of 50 protein kinases that provide a representative sampling of the human kinome. The results were expressed as the mean percentage of residual activity at 10 μM concentration (duplicate assays). Small disks: ≥65%, larger disk: 19%. The black square indicates the kinome region containing protein kinases evaluated in a second screening (FIG. 4, Table 4). The tree was generated using the Kinome Render software, and the illustration reproduced courtesy of Cell Signaling Technology, Inc. (www.cellsignal.com) Chartier et al PeerJ 2013, 1:e126.
(§4) FIG. 4 illustrates the studies carried out for compounds 67 and 69. Compounds 67 and 69 (FIG. 4B) were evaluated at the International Center For Kinase Profiling (ICKP, Dundee, Scotland) toward a panel of 13 protein kinases. The results (FIG. 4A) were expressed as the mean percentage of residual activity at 1 μM concentration (duplicate assays). Small disks: ≥90%, larger disk: 59%, for both compounds. The tree was generated using the Kinome Render software, and the illustration reproduced courtesy of Cell Signaling Technology, Inc. (www.cellsignal.com) Chartier et al PeerJ 2013, 1:e126.
(§5) Results are expressed as the mean percentage of residual activity at 10 μM (Table 3) or 1 μM (Table 4). They are illustrated on FIGS. 3 and 4.
as §1, §2

Another assay concerns the target p38a MAPK (Homo sapiens (Human), UniProt Q16539). The assay can be described thus: ICKP protein kinase panel screening. Type of assay: biochemical. Conditions: 1 μM, duplicate assays, read-out: mean % residual activity. As to the method:
as §3, §4, §5, §1, §2

Assay [2] deals with panel of 13 protein kinases. The assay can be described thus: ICKP screening, whole panel of 13 protein kinases. Conditions: 1 μM. It is filed as biochemical, human. As to the method:
as §4, §5, §2

The target of a further assay is JNK3 (Homo sapiens (Human), UniProt P53779). The assay can be described thus: ICKP protein kinase panel screening. Conditions: duplicate assays, read-out: mean % residual activity. It is filed as biochemical. The procedure:
as §4, §5, §2

A further assay addresses ERK5 (Homo sapiens (Human), UniProt Q13164). The assay can be described thus: ICKP protein kinase panel screening. It is filed as biochemical. Conditions: duplicate assays, read-out: mean % residual activity. The procedure:
as §4, §5, §2

In another assay the target is CDK2-Cyclin A (Homo sapiens (Human), UniProt P24941). The assay can be described thus: ICKP protein kinase panel screening. Type of assay: biochemical. Conditions: duplicate assays, read-out: mean % residual activity. The procedure: as §4, §5, §2
For another assay, the target named is p38d MAPK (Homo sapiens (Human), UniProt O15264). The assay can be described thus: ICKP protein kinase panel screening. It is filed as biochemical. Conditions: duplicate assays, read-out: mean % residual activity. The procedure: as §4, §5, §2
Chain of p38d MAPK (O15264 whole entry): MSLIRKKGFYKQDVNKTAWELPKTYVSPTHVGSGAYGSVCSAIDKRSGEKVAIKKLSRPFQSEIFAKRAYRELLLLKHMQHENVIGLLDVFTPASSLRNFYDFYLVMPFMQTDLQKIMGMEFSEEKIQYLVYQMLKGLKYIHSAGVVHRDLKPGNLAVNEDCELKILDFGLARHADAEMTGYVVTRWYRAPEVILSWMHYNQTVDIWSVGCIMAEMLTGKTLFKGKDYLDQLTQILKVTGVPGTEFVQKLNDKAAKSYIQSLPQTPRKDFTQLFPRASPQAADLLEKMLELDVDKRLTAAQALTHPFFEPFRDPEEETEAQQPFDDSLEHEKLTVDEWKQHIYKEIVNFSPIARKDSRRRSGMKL
In the next assay the target is p38g MAPK (Homo sapiens (Human), UniProt P53778). The assay can be described thus: ICKP protein kinase panel screening. Conditions: duplicate assays, read-out: mean % residual activity. Type of assay: biochemical. The procedure: as §4, §5, §2
Chain of p38g MAPK (P53778 whole entry): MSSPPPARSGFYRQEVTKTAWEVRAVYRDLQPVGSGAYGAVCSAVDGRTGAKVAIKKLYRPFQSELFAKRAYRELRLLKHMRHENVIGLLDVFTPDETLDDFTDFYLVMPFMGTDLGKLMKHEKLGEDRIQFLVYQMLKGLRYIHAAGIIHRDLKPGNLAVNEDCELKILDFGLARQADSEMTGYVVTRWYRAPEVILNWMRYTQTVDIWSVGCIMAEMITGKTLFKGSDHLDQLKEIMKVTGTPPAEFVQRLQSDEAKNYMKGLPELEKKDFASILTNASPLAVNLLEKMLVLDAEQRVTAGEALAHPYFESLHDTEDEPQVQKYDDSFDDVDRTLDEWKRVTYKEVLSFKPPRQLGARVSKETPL
The next assay addresses JNK2 (Homo sapiens (Human), UniProt P45984). The assay can be described thus: ICKP protein kinase panel screening. It is filed as biochemical. Conditions: duplicate assays, read-out: mean % residual activity. As to the method: as §4, §5, §2
The target of the next assay is p38b MAPK (Homo sapiens (Human), UniProt Q15759). The assay can be described thus: ICKP protein kinase panel screening. It is filed as biochemical. Conditions: duplicate assays, read-out: mean % residual activity. The procedure: as §4, §5, §2
Chain of p38b MAPK (Q15759 whole entry): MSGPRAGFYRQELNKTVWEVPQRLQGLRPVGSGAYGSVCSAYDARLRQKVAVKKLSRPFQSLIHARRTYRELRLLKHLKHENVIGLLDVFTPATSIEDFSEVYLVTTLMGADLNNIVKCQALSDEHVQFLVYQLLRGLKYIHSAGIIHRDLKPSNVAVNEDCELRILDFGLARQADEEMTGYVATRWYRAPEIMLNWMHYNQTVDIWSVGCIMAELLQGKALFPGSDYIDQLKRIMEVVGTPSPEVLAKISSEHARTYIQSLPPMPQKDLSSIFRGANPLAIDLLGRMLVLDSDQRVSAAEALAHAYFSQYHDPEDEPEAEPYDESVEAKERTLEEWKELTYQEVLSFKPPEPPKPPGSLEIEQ
A further assay concerns the target CDK5 (Homo sapiens (Human), UniProt Q00535). The assay can be described thus: ICKP protein kinase panel screening. It is filed as biochemical. Conditions: duplicate assays, read-out: mean % residual activity. As to the method:
as §4, §5, §2

The target of the next assay is ERK1 (Homo sapiens (Human), UniProt P27361). The assay can be described thus: ICKP protein kinase panel screening. It is filed as biochemical. Conditions: duplicate assays, read-out: mean % residual activity. As to the method: as §4, §5, §2
The next assay deals with ERK8 (Homo sapiens (Human), UniProt Q8TD08). The assay can be described thus: ICKP protein kinase panel screening. Type of assay: biochemical. Conditions: duplicate assays, read-out: mean % residual activity. The procedure: as §4, §5, §2
Chain of ERK8 (Q8TD08 whole entry): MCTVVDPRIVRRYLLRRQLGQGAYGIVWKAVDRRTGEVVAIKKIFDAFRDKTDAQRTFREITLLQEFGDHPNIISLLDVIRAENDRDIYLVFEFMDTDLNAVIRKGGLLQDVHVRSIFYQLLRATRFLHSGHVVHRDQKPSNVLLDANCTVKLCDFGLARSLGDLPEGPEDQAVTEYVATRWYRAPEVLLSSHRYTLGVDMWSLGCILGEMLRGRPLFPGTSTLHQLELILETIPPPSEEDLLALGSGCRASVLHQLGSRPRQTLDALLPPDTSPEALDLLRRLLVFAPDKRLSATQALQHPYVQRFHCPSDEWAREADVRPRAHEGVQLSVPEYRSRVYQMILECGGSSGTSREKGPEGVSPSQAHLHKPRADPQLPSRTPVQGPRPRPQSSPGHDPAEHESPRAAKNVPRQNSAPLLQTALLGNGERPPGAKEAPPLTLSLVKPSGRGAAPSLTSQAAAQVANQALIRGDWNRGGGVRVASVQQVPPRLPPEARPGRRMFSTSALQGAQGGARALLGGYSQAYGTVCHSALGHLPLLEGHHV
The target in a further assay is ERK2 (Homo sapiens (Human), UniProt P28482). The assay can be described thus: ICKP protein kinase panel screening. It is filed as biochemical. Conditions: duplicate assays, read-out: mean % residual activity. The procedure:
as §4, §5, §2

Chain of p38α MAPK (Q16539 whole entry): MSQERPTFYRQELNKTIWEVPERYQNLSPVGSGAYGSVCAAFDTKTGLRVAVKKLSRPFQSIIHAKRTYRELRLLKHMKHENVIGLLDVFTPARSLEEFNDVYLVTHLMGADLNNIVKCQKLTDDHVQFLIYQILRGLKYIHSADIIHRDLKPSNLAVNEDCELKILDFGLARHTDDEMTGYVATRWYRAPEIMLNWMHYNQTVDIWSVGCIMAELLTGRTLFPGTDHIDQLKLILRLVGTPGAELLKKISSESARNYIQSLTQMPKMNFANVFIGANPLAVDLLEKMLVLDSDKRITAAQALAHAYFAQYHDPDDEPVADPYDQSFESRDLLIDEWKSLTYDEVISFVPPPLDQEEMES
Chain of ERK5 (Q13164 whole entry): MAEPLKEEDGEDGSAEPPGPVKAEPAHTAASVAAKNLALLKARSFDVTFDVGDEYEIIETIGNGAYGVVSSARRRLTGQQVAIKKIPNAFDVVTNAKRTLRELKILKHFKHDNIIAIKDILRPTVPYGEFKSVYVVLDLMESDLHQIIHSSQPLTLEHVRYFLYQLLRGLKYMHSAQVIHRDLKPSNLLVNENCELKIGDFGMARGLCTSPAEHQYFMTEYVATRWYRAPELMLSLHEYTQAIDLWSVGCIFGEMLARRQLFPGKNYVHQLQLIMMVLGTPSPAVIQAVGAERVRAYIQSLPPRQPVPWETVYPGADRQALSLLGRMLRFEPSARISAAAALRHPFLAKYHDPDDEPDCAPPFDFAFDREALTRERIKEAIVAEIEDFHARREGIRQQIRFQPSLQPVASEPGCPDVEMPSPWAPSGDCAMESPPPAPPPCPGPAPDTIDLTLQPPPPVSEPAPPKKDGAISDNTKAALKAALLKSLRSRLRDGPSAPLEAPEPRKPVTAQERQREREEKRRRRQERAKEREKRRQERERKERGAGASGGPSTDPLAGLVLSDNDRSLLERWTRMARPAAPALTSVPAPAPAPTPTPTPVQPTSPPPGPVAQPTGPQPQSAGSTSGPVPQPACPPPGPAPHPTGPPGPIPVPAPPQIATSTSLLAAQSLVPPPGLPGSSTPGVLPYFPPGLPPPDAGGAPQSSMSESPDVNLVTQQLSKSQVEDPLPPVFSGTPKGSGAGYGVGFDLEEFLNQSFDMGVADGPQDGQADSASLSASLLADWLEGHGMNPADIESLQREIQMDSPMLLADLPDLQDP
Chain of CDK5 (Q00535 whole entry): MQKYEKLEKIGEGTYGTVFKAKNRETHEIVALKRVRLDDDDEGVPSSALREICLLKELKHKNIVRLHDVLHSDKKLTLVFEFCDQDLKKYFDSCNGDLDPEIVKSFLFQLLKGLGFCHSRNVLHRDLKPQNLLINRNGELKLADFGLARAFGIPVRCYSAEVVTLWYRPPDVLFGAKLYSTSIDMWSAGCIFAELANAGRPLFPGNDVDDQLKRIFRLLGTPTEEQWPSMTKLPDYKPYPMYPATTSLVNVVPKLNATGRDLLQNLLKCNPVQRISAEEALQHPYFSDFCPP
Chain of CDK5 (Q15078 whole entry partner): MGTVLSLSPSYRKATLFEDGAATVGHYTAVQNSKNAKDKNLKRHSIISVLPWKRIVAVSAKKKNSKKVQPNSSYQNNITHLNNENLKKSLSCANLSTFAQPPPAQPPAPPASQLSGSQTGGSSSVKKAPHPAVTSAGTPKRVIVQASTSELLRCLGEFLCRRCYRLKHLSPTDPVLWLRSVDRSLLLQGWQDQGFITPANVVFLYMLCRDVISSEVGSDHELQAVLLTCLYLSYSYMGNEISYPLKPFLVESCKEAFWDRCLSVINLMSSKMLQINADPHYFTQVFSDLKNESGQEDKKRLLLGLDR
Chain of JNK1 (P45983 whole entry): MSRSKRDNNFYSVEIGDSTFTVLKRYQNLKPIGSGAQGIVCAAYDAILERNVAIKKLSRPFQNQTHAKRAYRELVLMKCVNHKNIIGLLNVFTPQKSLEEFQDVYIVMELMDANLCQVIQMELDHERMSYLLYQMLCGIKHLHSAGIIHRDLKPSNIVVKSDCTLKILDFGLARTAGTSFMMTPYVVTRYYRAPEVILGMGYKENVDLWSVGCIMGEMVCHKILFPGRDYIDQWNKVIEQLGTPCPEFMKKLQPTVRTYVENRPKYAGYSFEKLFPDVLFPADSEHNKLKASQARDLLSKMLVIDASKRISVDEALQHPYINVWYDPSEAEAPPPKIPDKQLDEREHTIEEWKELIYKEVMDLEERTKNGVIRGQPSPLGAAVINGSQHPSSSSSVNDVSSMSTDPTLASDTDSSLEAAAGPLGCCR
Chain of JNK2 (P45984 whole entry): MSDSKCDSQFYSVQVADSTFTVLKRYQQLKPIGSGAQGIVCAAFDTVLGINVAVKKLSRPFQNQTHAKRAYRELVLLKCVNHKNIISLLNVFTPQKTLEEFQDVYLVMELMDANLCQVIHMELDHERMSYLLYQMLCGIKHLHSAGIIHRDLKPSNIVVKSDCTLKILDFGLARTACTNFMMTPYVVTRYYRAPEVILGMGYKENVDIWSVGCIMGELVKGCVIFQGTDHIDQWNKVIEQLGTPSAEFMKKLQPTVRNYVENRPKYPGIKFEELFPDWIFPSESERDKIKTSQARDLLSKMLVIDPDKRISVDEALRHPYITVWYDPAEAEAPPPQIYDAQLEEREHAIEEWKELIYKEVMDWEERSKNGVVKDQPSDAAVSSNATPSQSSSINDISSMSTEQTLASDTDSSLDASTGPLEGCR
Chain of ERK2 (P28482 whole entry): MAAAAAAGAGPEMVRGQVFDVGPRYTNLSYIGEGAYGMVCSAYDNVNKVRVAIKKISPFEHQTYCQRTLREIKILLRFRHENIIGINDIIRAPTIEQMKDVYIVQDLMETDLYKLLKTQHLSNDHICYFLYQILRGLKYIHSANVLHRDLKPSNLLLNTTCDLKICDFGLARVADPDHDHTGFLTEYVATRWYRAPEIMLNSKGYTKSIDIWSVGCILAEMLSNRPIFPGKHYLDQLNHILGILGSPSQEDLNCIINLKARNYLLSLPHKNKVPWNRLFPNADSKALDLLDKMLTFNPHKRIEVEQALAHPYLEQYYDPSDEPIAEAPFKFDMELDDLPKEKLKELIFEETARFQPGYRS
Chain of p38a MAPK (Q16539 whole entry): as the sequence (Q16539 whole entry) above

As for `O=c1[nH]cc(Nc2ccccc2)cc1-c1cccc2[nH]ccc12` [Compound 67, 3-(1H-Indol-4-yl)-5-(phenylamino)pyridin-2(1H)-one], the “prevention of inflammatory MA (allodynic score, 6-g von Frey filament)” value in assay [1] (30 min before CFA) is “strong anti-allodynic activity; also recorded: most active”. For the same compound, the “inhibition of inflammatory MA” value in assay [1] (30 min before CFA injection) is given as 98%. The 50% inhibitory concentration (IC50) was 3.03 µM at p38α MAPK (p38 alpha, read-out: Mean IC50) and 3 ± 0.1 µM at p38α MAPK (read-out: IC50 toward p38α MAPK). The remaining activity at 1 µM on JNK1 worked out at 94%; on p38a MAPK it was 59%; at JNK3, 98%; at ERK5, 113%; at CDK2-Cyclin A it was 111%; on p38d MAPK it was 113%. For the same compound, the remaining activity at 1 µM on p38g MAPK was determined as 107%; at JNK2 it was 103%; on p38b MAPK it was 112%; on CDK5 it was 101%; on ERK1, 122%; at ERK8, 128%. Moreover, the remaining activity at 1 µM at ERK2 is 108%. Besides, the “mean percentage of residual activity, other kinases of the panel (small disks)” value in assay [2] (all kinases except p38α MAPK) is at least 90%. For the same compound, in [2] (panel of 13 kinases), the “selectivity for p38α MAPK over the other protein kinases incl. p38 isoforms” value is “same selectivity profile; also recorded: selective p38α MAPK inhibitor”.

The record behind these values is patent publication US12351556B2, “Pyridin-2(1H)one derivatives, their preparation and their use for the treatment of pain” (INSTITUT NATIONAL DE LA SANTE ET DE LA RECHERCHE MEDICALE …, priority 2019, dated 2025).
